System: patients with advanced HCC
Experiment: Safety: adverse events
Type: in vivo, human
Details: for ALT increased (AE regardless of study drug relationship) / AST increased (AE regardless of study drug relationship) / Abdominal pain (AE regardless of study drug relationship) / Acute kidney injury (AE regardless of study drug relationship) / Anemia (AE regardless of study drug relationship) / Ascites (AE regardless of study drug relationship) / Blood bilirubin increased (AE regardless of study drug relationship) / Blood creatinine increased (AE regardless of study drug relationship) / Constipation (AE regardless of study drug relationship) / Decreased appetite (AE regardless of study drug relationship) / Diarrhea (AE regardless of study drug relationship) / Fatigue (AE regardless of study drug relationship) / Hyperbilirubinemia (AE regardless of study drug relationship) / Hypoalbuminemia (AE regardless of study drug relationship) / Insomnia (AE regardless of study drug relationship) / Leukopenia (AE regardless of study drug relationship) / Nausea (AE regardless of study drug relationship) / Number of patients with at least one event (AE regardless of study drug relationship) / Peripheral edema (AE regardless of study drug relationship) / Platelet count decreased (AE regardless of study drug relationship) / Pyrexia (AE regardless of study drug relationship) / Vomiting (AE regardless of study drug relationship) / Weight decreased (AE regardless of study drug relationship): patients n (%)
[1] = 300 mg capsule BID n = 9, All grades
[2] = 300 mg capsule BID n = 9, Grades 3/4
[3] = 400 mg tablet BID n = 2, All grades
[4] = 400 mg tablet BID n = 2, Grades 3/4
[5] = 600 mg capsule BID n = 27, All grades

CNC(=O)c1ccc(-c2cnc3ncc(Cc4ccc5ncccc5c4)n3n2)cc1F [capmatinib]
6 (22): ALT increased (AE regardless of study drug relationship) [5]
2 (22): Abdominal pain (AE regardless of study drug relationship) [1] | Acute kidney injury (AE regardless of study drug relationship) [1] | Blood bilirubin increased (AE regardless of study drug relationship) [1] | Constipation (AE regardless of study drug relationship) [1] | Hypoalbuminemia (AE regardless of study drug relationship) [1] | Peripheral edema (AE regardless of study drug relationship) [1] | Weight decreased (AE regardless of study drug relationship) [1] | Anemia (AE regardless of study drug relationship) [2]
11 (41): AST increased (AE regardless of study drug relationship) [5]
4 (44): Vomiting (AE regardless of study drug relationship) [1]
1 (50): ALT increased (AE regardless of study drug relationship) [3] | Constipation (AE regardless of study drug relationship) [3] | Fatigue (AE regardless of study drug relationship) [3] | Insomnia (AE regardless of study drug relationship) [3] | Nausea (AE regardless of study drug relationship) [3] | Vomiting (AE regardless of study drug relationship) [3] | ALT increased (AE regardless of study drug relationship) [4] | Number of patients with at least one event (AE regardless of study drug relationship) [4]
3 (33): Anemia (AE regardless of study drug relationship) [1] | Blood creatinine increased (AE regardless of study drug relationship) [1] | Decreased appetite (AE regardless of study drug relationship) [1] | Fatigue (AE regardless of study drug relationship) [1]
1 (11): AST increased (AE regardless of study drug relationship) [1] | Ascites (AE regardless of study drug relationship) [1] | Insomnia (AE regardless of study drug relationship) [1] | Pyrexia (AE regardless of study drug relationship) [1] | AST increased (AE regardless of study drug relationship) [2] | Acute kidney injury (AE regardless of study drug relationship) [2] | Blood bilirubin increased (AE regardless of study drug relationship) [2] | Diarrhea (AE regardless of study drug relationship) [2] | Hypoalbuminemia (AE regardless of study drug relationship) [2] | Vomiting (AE regardless of study drug relationship) [2]
0: ALT increased (AE regardless of study drug relationship) [1] | Hyperbilirubinemia (AE regardless of study drug relationship) [1] | Leukopenia (AE regardless of study drug relationship) [1] | Platelet count decreased (AE regardless of study drug relationship) [1] | ALT increased (AE regardless of study drug relationship) [2] | Abdominal pain (AE regardless of study drug relationship) [2] | Ascites (AE regardless of study drug relationship) [2] | Blood creatinine increased (AE regardless of study drug relationship) [2] | Constipation (AE regardless of study drug relationship) [2] | Decreased appetite (AE regardless of study drug relationship) [2] | Fatigue (AE regardless of study drug relationship) [2] | Hyperbilirubinemia (AE regardless of study drug relationship) [2] | Insomnia (AE regardless of study drug relationship) [2] | Leukopenia (AE regardless of study drug relationship) [2] | Nausea (AE regardless of study drug relationship) [2] | Peripheral edema (AE regardless of study drug relationship) [2] | Platelet count decreased (AE regardless of study drug relationship) [2] | Pyrexia (AE regardless of study drug relationship) [2] | Weight decreased (AE regardless of study drug relationship) [2] | AST increased (AE regardless of study drug relationship) [3] | Abdominal pain (AE regardless of study drug relationship) [3] | Acute kidney injury (AE regardless of study drug relationship) [3] | Anemia (AE regardless of study drug relationship) [3] | Ascites (AE regardless of study drug relationship) [3] | Blood bilirubin increased (AE regardless of study drug relationship) [3] | Blood creatinine increased (AE regardless of study drug relationship) [3] | Decreased appetite (AE regardless of study drug relationship) [3] | Diarrhea (AE regardless of study drug relationship) [3] | Hyperbilirubinemia (AE regardless of study drug relationship) [3] | Hypoalbuminemia (AE regardless of study drug relationship) [3] | Leukopenia (AE regardless of study drug relationship) [3] | Peripheral edema (AE regardless of study drug relationship) [3] | Platelet count decreased (AE regardless of study drug relationship) [3] | Pyrexia (AE regardless of study drug relationship) [3] | Weight decreased (AE regardless of study drug relationship) [3] | AST increased (AE regardless of study drug relationship) [4] | Abdominal pain (AE regardless of study drug relationship) [4] | Acute kidney injury (AE regardless of study drug relationship) [4] | Anemia (AE regardless of study drug relationship) [4] | Ascites (AE regardless of study drug relationship) [4] | Blood bilirubin increased (AE regardless of study drug relationship) [4] | Blood creatinine increased (AE regardless of study drug relationship) [4] | Constipation (AE regardless of study drug relationship) [4] | Decreased appetite (AE regardless of study drug relationship) [4] | Diarrhea (AE regardless of study drug relationship) [4] | Fatigue (AE regardless of study drug relationship) [4] | Hyperbilirubinemia (AE regardless of study drug relationship) [4] | Hypoalbuminemia (AE regardless of study drug relationship) [4] | Insomnia (AE regardless of study drug relationship) [4] | Leukopenia (AE regardless of study drug relationship) [4] | Nausea (AE regardless of study drug relationship) [4] | Peripheral edema (AE regardless of study drug relationship) [4] | Platelet count decreased (AE regardless of study drug relationship) [4] | Pyrexia (AE regardless of study drug relationship) [4] | Vomiting (AE regardless of study drug relationship) [4] | Weight decreased (AE regardless of study drug relationship) [4]
5 (56): Diarrhea (AE regardless of study drug relationship) [1] | Number of patients with at least one event (AE regardless of study drug relationship) [2]
2 (100): Number of patients with at least one event (AE regardless of study drug relationship) [3]
No qualifying AEs: predefined qualifying adverse events in dose-determining stage (300 mg BID capsules, first 28 days of treatment, six evaluable patients)
9 (100): Number of patients with at least one event (AE regardless of study drug relationship) [1]
6 (67): Nausea (AE regardless of study drug relationship) [1]
